Measured values taken from publication PMC6934184, “Selective DNA-PKcs inhibition extends the therapeutic index of localized radiotherapy and chemotherapy” (The Journal of Clinical Investigation, 2019).

Target: T1, EGFR (ErbB1) T790M L858R (Homo sapiens, UniProt P00533, L858R/T790M)
T1 construct: purchased Thermo Fisher Scientific (Life Technologies) SelectScreen
Assay: SelectScreen Z'LYTE
Type: biochemical
Summary of the method: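 NU5455 was profiled across the SelectScreen Broad panel of kinase activity and binding assays. Z'LYTE reactions such as CSF1R ran at apparent Km ATP, while the Adapta CAMK1 assay used ATP listed as 10. Values are given as percent.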

T1 sequence (P00533 25-1210 T790M/L858R): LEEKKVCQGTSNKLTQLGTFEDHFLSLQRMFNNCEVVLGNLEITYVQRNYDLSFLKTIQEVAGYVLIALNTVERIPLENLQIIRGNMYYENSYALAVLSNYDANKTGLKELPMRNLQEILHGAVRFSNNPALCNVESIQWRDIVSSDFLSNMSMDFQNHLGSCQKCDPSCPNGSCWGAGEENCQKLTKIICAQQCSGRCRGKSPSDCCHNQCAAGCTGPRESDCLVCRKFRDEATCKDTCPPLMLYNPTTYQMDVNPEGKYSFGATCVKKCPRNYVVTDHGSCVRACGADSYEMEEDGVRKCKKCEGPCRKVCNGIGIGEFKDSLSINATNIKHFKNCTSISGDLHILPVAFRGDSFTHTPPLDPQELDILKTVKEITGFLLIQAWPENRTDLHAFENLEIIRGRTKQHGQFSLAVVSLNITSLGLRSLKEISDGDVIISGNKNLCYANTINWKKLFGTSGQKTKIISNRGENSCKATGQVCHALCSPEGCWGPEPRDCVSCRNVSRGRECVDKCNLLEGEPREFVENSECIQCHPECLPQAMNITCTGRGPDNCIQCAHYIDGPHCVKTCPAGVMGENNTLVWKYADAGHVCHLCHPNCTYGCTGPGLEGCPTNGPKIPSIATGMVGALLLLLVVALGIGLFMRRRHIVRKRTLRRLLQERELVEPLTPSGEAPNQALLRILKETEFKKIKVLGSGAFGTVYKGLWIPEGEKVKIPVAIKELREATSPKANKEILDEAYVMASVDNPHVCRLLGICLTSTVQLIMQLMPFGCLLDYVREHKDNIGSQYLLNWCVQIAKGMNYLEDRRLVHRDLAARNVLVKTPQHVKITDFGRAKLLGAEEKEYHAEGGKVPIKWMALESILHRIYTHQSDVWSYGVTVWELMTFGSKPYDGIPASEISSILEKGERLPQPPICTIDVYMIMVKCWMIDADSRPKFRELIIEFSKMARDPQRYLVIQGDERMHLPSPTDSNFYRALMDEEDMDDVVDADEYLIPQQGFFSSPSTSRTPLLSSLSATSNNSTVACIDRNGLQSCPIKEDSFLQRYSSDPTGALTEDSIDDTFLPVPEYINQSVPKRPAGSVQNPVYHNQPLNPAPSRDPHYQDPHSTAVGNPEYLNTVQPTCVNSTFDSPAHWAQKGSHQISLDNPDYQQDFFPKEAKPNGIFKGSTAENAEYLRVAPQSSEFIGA

Structure (SMILES): CN(C(=O)CN1CCOCC1)c1ccc2sc3c(-c4cccc5c(=O)cc(N6CC7CCC(C6)O7)oc45)cccc3c2c1 [NU5455]
- inhibition at 1 µM: -14.1%
